Reference: patent US20190022092A1, “Therapeutic Combinations of a BTK Inhibitor and a GITR Binding Molecule, a 4-1BB Agonist, or an OX40 Agonist” (Acerta Pharma B.V., priority 2015, published 2019)

Legend:
[1] = GLP functional observation battery; assay type: in vivo; details: rats, doses through 300 mg/kg
Description: (§1) Formula (2) was well tolerated in standard in vivo Good Laboratory Practices (GLP) studies of pharmacologic safety.

[2] = tested on: NK cell lysis of primary CLL cells; assay: Rituximab ADCC 51Cr release assay, primary autologous CLL targets; assay type: cell-based, human; details: 1 μM; E:T 25:1
Description: Cell culture conditions were as follows. […] The HER18 cells were maintained in DEM supplemented with fetal bovine serum, penicillin-streptomycin and. Prior to assay, HER18 cells were harvested using trypsin-EDTA, washed with phosphate-buffered saline (PBS) containing 5% serum and viable cells were counted. For culture of primary target cells, peripheral blood from CLL patients was subject to density centrifugation to obtain peripheral blood mononuclear cells (PBMC). Cell preparations were washed and then subject to positive selection of CD5^+CD19^+ CLL cells using magnetic beads (MACS, Miltenyi Biotech). Cell preparations were used fresh after selection. NK cells from CLL patients and healthy volunteers were enriched from peripheral blood collected in sodium citrate anticoagulant tubes and then subject to density centrifugation. Removal of non NK cells was performed using negative selection by MACS separation. Freshly isolated NK cells were washed three times, enumerated, and then used immediately for ADCC assays.
ADCC assays were performed as follows. Briefly, target cells (Raji or primary CLL) were labeled by incubation at 37° C. with 100 μCi ^51Cr for 4 hours prior to co-culture with NK cells. […] Supernatants were harvested and ^51Cr release was measured by liquid scintillation counting. […]

[3] = tested on: NK cells co-cultured with antibody-coated DHL-4 or HER18 target cells; assay: NK cell lytic granule release (CD107a) by flow cytometry; assay type: cell-based, human; details: 1 μM; HER18 targets, trastuzumab 10 μg/mL
Description: Prior to assay, HER18 cells were harvested using trypsin-EDTA, washed with phosphate-buffered saline (PBS) containing 5% serum and viable cells were counted. For culture of primary target cells, peripheral blood from CLL patients was subject to density centrifugation to obtain peripheral blood mononuclear cells (PBMC). Cell preparations were washed and then subject to positive selection of CD5^+CD19^+ CLL cells using magnetic beads (MACS, Miltenyi Biotech). Cell preparations were used fresh after selection. NK cells from CLL patients and healthy volunteers were enriched from peripheral blood collected in sodium citrate anticoagulant tubes and then subject to density centrifugation. Removal of non NK cells was performed using negative selection by MACS separation. […]
Lytic granule release was determined as follows. […] Degranulation was evaluated via by flow cytometery by externalization of CD107a, a protein normally present on the inner leaflet of lytic granules, and gating on NK cells (CD3-CD16^+ lymphocytes). The percentage of CD107a positive NK cells was quantified by comparison with a negative control (isotype control, unstained cells/FMO). Control cultures (NK cells cultured without target cells, or NK, target cell co-cultures in the absence of appropriate monoclonal antibody) were also evaluated; all experiments were performed in triplicate.

[4] = tested on: 80 known pharmacologic targets (G-protein-coupled receptors, nuclear receptors, proteases, ion channels); assay: Binding assays on 80 known pharmacologic targets at 10 μM; details: screened at 10 μM
Description: as §1

Th17 and Treg cells = assay: Th17 and Treg development of CD4+ T cells under skewing cytokines; assay type: cell-based
Experimental: Enriched CD4^+ T cells are plated on 24-well culture dishes that have been precoated 2 hr with 250 μL anti-TCRβ (0.5 μg/mL) plus anti-CD28 (5 μg/mL) at 37° C. in PBS. The cells are then supplemented with media containing BTK inhibitors along with the skewing cytokines as indicated in the following. The Th17 and Treg cultures are grown for 4 days before analysis. The cells are maintained for an additional 3 days with skewing cytokines (Th17; 20 ng/mL IL-6, 0.5 ng/mL TGF-β, 5 μg/mL IL-4, 5 μg/mL IFN-γ and Treg; 0.5 ng/mL TGF-β, 5 μg/mL IL-4, 5 μg/mL IFN-γ) and are supplemented with IL2 as a growth factor.

[5] = tested on: BCR; activation markers CD69 and CD86; assay: In vivo potency: BCR stimulated with IgM, CD69 and CD86 expression by flow cytometry; details: mice gavaged, sacrificed 3 hours post-dose, compared with ibrutinib
Experimental: Mice were gavaged at increasing drug concentration and sacrificed at one time point (3 hours post-dose). BCR is stimulated with IgM and the expression of activation markers CD69 and CD86 are monitored by flow cytometry to determine EC50 values.

CYP enzymes = assay: Nonclinical CYP interaction studies; assay type: in vitro ADME
CLL = assay: Clinical study of Formula (2) in CLL (ALC, SPD, PFS, immune cells, apoptosis, chemokines); details: CLL patients, relative to ibrutinib (Byrd et al. 2013)
Description: Trendlines are shown for % change in MDSC (monocytic) level and % change in NK cell level.

ID8 ovarian cancer = assay: ID8 syngeneic orthotopic ovarian cancer murine model; assay type: in vivo, mice; details: 15 mg/kg/BID orally
Description: […] ovarian cancer models, including the ID8 syngeneic orthotopic ovarian cancer model and other animal models, are described in Fong and Kakar, J. Ovarian Res. 2009, 2, 12; Greenaway, et al., Gynecol. Oncol. 2008, 108, 385-94; Urzua, et al., Tumour Biol. 2005, 26, 236-44; Janat-Amsbury, et al., Anticancer Res. 2006, 26, 3223-28; Janat-Amsbury, et al., Anticancer Res. 2006, 26, 2785-89. […] The results of the study are shown in FIG. 8, FIG. 9, FIG. 10, FIG. 11, FIG. 12, FIG. 13, FIG. 14, and FIG. 15.

KPC pancreatic cancer = KPC pancreatic cancer model (tumor volumes, tumor tissue immune cells); assay type: in vivo; details: tumor tissues
BTK = target: T1, BTK (Mus musculus, UniProt P35991); assay: Molecular probe assay of BTK occupancy in MDSCs of tumor bearing PDA mice; assay type: in vivo; details: 15 mg/kg BID, Day 8, 4 hours post dose
T1 construct: endogenous in cells; host or cells: granulocytic and monocytic MDSCs from tumor-bearing PDA mice
Description: A molecular probe assay was used to calculate the percent irreversible occupancy of total BTK.

CXCL12 and CCL2 = assay: Plasma chemokines in treated CLL patients; assay type: in vivo, human; details: CLL patients on treatment
[6] = In vitro metabolism in hepatocytes with 14C-labeled drug; assay type: in vitro ADME, and human; details: mouse, rat, dog, rabbit, monkey, human hepatocytes
CD8+ T cell = assay: IFN-γ level measurements for CD8+ T cell function; assay type: cell-based; details: relative to vehicle
Description: FIG. 39 illustrates the results of IFN-γ level measurements for CD8^+ T cell function.

T1 sequence (P35991 whole entry): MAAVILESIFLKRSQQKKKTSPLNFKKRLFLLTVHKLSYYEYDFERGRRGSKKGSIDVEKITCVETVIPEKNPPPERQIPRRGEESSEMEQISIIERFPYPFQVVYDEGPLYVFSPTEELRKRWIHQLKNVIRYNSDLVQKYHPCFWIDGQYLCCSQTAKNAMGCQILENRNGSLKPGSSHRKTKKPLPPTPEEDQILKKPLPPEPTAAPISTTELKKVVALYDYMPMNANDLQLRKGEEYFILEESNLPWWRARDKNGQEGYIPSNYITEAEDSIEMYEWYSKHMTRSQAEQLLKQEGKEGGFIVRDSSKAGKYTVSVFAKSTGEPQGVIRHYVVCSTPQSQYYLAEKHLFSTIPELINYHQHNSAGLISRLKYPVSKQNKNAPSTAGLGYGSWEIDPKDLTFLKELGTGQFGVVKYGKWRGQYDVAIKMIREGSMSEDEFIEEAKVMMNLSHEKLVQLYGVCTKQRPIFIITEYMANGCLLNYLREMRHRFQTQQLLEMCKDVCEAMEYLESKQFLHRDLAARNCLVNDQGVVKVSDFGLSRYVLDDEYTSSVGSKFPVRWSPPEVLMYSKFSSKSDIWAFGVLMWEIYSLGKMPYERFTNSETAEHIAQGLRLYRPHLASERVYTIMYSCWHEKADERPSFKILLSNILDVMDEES

CC#CC(=O)N1CCC[C@H]1c1nc(-c2ccc(C(=O)Nc3ccccn3)cc2)c2c(N)nccn12 [Formula (2), (S)-4-(8-amino-3-(1-(but-2-ynoyl)pyrrolidin-2-yl)imidazo[1,5-a]pyrazin-1-yl)-N-(pyridin-2-yl)benzamide]
functional observation battery: neurobehavioral effects, body temperature [1]: no adverse effects
effect on rituximab-mediated ADCC, primary CLL samples (autologous) [2]: not inhibited
inhibition of trastuzumab-stimulated NK cell degranulation [3]: no inhibitory effect
activity in binding assays on 80 known pharmacologic targets [4]: significant activity only against the A3 adenosine receptor
Th17 development (Th17 and Treg cells): no adverse effect
Treg development (Th17 and Treg cells): no adverse effect
inhibition of expression of activation markers CD69 and CD86 [5]: more potent at inhibiting expression of activation makers than Formula (10) (ibrutinib)
potential for clinical drug-drug interactions via CYP enzymes (CYP enzymes): very unlikely to cause clinical drug-drug interactions
absolute lymphocyte count (ALC) (CLL): much smaller relative increase and much faster decrease in absolute lymphocyte count (ALC)
CD8+ T cells (ID8 ovarian cancer): increase
immunosuppressive B cells, including Bregs (ID8 ovarian cancer; tumor-bearing mice): significant reduction
immunosuppressive tumor-associated lymphocytes (ID8 ovarian cancer; tumor-bearing mice): significant reduction
immunosuppressive MDSCs (Gr1+Ly6CHi) (KPC pancreatic cancer): significantly reduced
immunosuppressive TAMs (CD11b+Ly6ClowF4/80+Csf1r+) (KPC pancreatic cancer): significantly reduced
immunosuppressive Tregs (CD4+CD25+FoxP3+) (KPC pancreatic cancer): significantly reduced
irreversible BTK occupancy in granulocytic and monocytic MDSCs (BTK): Complete BTK occupancy
plasma CCL2 levels (CXCL12 and CCL2): significant decrease
plasma CXCL12 levels (CXCL12 and CCL2): significant decrease
metabolites in hepatocytes [6]: two mono-oxidized metabolites and a glutathione conjugate
CD8+ T cell function as IFN-γ level (CD8+ T cell): no effect on CD8^+ T cell function as measured by IFN-γ level relative to vehicle
